Patent publication EP4813403A1, “USE OF GLP-1R/GIPR DOUBLE-TARGET AGONIST IN PREPARING ANIMAL DRUG” (Hangzhou Zhongmeihuadong Pharmaceutical Co., Ltd., priority 2023, dated 2025)
Like-named read-outs stand apart in the source and are kept apart here.

Legend:
[1] = target: T1, mouse GIPR (Mus musculus, UniProt Q0P543); assay: Agonistic activity on GIPR of different species (LANCE Ultra cAMP assay): mouse; type: cell-based; conditions: ratio of EC50 value of other species to human EC50 value
T1 construct: expressed in transfected cells; host or cells: CHO-K1 (transient)
T1 sequence (Q0P543 19-460): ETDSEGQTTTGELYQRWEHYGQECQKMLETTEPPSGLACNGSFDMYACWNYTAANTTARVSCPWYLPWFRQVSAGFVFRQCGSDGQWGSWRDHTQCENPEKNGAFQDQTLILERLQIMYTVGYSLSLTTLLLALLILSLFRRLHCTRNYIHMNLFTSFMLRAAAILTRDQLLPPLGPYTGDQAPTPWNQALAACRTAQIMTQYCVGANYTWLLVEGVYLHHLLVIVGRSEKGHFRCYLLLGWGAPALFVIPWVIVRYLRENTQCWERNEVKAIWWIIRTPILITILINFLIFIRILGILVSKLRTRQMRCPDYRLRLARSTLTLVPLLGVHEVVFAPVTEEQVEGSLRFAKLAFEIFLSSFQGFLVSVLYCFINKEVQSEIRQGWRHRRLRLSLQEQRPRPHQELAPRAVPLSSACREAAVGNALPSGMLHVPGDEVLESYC

[2] = target: T2, mouse GLP-1R (Mus musculus, UniProt O35659); assay: Agonistic activity on GLP-1R of different species (LANCE Ultra cAMP assay): mouse; type: cell-based; conditions: ratio of EC50 value of other species to human EC50 value
T2 construct: expressed in transfected cells
T2 sequence (O35659 22-463): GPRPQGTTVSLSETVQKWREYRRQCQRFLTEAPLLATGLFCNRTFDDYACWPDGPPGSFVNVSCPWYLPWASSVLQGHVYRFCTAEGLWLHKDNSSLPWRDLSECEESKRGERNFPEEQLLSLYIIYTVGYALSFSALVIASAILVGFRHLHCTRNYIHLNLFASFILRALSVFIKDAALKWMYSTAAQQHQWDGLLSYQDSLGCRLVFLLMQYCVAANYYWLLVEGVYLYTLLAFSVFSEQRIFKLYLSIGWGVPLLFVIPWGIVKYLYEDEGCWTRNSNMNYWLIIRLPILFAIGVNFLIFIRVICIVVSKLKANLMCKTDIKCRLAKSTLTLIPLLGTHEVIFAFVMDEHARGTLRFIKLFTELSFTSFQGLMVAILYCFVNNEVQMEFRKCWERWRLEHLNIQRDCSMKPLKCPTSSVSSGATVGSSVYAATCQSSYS

[3] = test system: obese cats; assay: Weight loss efficacy in obese cats; type: in vivo; conditions: s.c. QW escalating doses
Protocol: This study evaluated the weight loss efficacy of the compound of this invention through multiple subcutaneous administrations to obese cats, with changes in cat body weights being monitored. The study involved cats aged 8 months or older with a body condition score (BCS) of ≥6. […] G11 (control group), G12, G13, and […]. . Group G11 served as the vehicle control group. […] The animals' body weights were measured at a fixed time every 7 days after administration, and food intake was measured once per day. Blood tests for routine and biochemical parameters were conducted before grouping and on […]. Body condition score (BCS), feline body mass index (FBMI), and abdominal circumference (AC) were measured once a week. The data were statistically analyzed using ANOVA. If ANOVA yielded statistical significance (p < 0.05) and the variances were homogeneous, Tukey's test was used for intergroup comparisons. If the variances were heterogeneous, Dunnett's T3 test was used. Results are presented as means and standard errors of the mean (Mean ± SEM). The significance level was set at 0.05, and both statistical and biological significance were considered in the analysis.

[4] = Pharmacokinetics in beagle dogs; type: in vivo; conditions: for MRT: beagle
Protocol: After subcutaneous administration to beagle dogs, plasma was collected and the drug concentration in plasma was determined to illustrate the in vivo pharmacokinetic properties of the compound according to the present invention. The compound of the present invention was administered to a beagle dog (7-9 kg) at a dose of 0.05mg/kg subcutaneously (s.c.). About 500 µL of whole blood was collected from the saphenous vein into an EDTA-K2 anticoagulant tube at predose, 0.5 hours, 1 hour, 2 hours, 6 hours, 10 hours, 24 hours, 48 hours, 72 hours and 96 hours, respectively. The blood samples were centrifuged at 3000 g and at 2°C to 8°C for 10 minutes to obtain plasma, which was stored at -90°C to -60°C for further analysis and assay.
20.0 µL of thawed plasma sample was taken. […] Then 120 µL of 0.1% formic acid in methanol was added to precipitate the protein. The mixture was vortexed for 5 minutes, and centrifuged at 4815g for 10 minutes. 100.0 µL of the supernatant was taken, into which 100 µL of 0.5% aqueous formic acid solution was added. The mixture was vortexed for 5 minutes. 10 µL of the mixture solution was sampled and injected into the LC-MS/MS to determine the drug concentration in plasma.
Based on the drug concentration in plasma of the compound in the beagle dogs, the pharmacokinetic parameters were calculated by applying the software Winnolin 8.3 in a non-compartmental model. Table 11 Average pharmacokinetic parameters after single subcutaneous administration in beagle dogs

[5] = beagle dogs, single subcutaneous administration, 0.05mg/kg
[6] = dog, in vivo, sc, beagle dogs, single subcutaneous administration, 0.05mg/kg

Compound: CC[C@H](C)[C@H](NC(=O)C(C)(C)NC(=O)[C@H](Cc1ccc(O)cc1)NC(=O)[C@H](CC(=O)O)NC(=O)[C@H](CO)NC(=O)[C@@H](NC(=O)C(C)(Cc1ccccc1)NC(=O)[C@@H](NC(=O)CNC(=O)[C@H](CCC(=O)O)NC(=O)C(C)(C)NC(=O)[C@@H](N)Cc1ccc(O)cc1)[C@@H](C)O)[C@@H](C)O)C(=O)NC(C)(C)C(=O)N[C@@H](CC(C)C)C(=O)N[C@@H](CC(=O)O)C(=O)N[C@@H](CCCCN)C(=O)N[C@@H](CCC(N)=O)C(=O)N[C@@H](C)C(=O)N[C@@H](CCC(N)=O)C(=O)N[C@@H](C)C(=O)N[C@@H](CCC(=O)O)C(=O)N[C@@H](Cc1ccccc1)C(=O)N[C@H](C(=O)N[C@@H](CCCCNC(=O)COCCOCCNC(=O)COCCOCCNC(=O)COCCOCCNC(=O)CC[C@H](NC(=O)CCCCCCCCCCCCCCCCCCCCC(=O)O)C(=O)O)C(=O)N[C@@H](Cc1c[nH]c2ccccc12)C(=O)N[C@@H](CC(C)C)C(=O)N[C@@H](CC(C)C)C(=O)N[C@@H](CCCCN)C(=O)NCC(=O)NCC(=O)N1CCC[C@H]1C(=O)N[C@@H](CO)C(=O)N[C@@H](CO)C(=O)NCC(=O)N[C@@H](C)C(=O)N1CCC[C@H]1C(=O)N1CCC[C@H]1C(=O)N1CCC[C@H]1C(=O)N[C@@H](CO)C(=O)N[C@@H](CCCCN)C(N)=O)C(C)C (stereo partly shown) [Compound P016]
- GIPR EC50 ratio [1]: 12.49
- GLP-1R EC50 ratio [2]: 1.09
- effective dose for weight loss [3]: 96 nmol/kg
- effective dose for weight loss ([3]; equivalent of the nmol/kg dose): 0.5 mg/kg
- maximum weight loss ([3]; five administrations): 19.45%
- AUC(0-t) [4, 5]: 29925 ng·h/mL
- Cmax [4, 5]: 407.33 ng/mL
- Tmax [4, 5]: 19.33 h
- MRT ([4]; dog, in vivo, sc, 0.05 mg/kg, MRT0-inf): 108 ± 23.2 h
- MRT ([4]; dog, in vivo, sc, 0.05 mg/kg, MRT0-t): 44.8 ± 4.17 h
- T1/2 ([4]; dog, in vivo, sc, 0.05 mg/kg): 69.32 h
- AUC(0-inf) [4, 6]: 52100 ± 14700 ng·h/mL
- half-life [4, 6]: 69.3 ± 14 h
- AUC(0-t) ([4]; dog, in vivo, sc, beagle dogs, single subcutaneous administration, 0.05mg/kg, read-out: AUC0-t): 29900 ± 5660 ng·h/mL
- Cmax ([4]; dog, in vivo, sc, beagle dogs, single subcutaneous administration, 0.05mg/kg, read-out: Cmax): 407 ± 45.8 ng/mL
- Tmax ([4]; dog, in vivo, sc, beagle dogs, single subcutaneous administration, 0.05mg/kg, read-out: Tmax): 19.3 ± 8.08 h
